Molecules are shown by their SMILES. ≈ marks a conversion by molar mass, not a printed value.

Test systems include Lactococcus garvieae; Streptococcus iniae; Vibrio alginolyticus; Vibrio harveyi; Vibrio parahaemolyticus; Staphylococcus aureus.
Test in all cases: ≥ marks a high value that may be exact or a test limit, other limits are often not marked, values filed in µg/mL are converted to µM
Test [1] has as its system Micrococcus luteus ATCC 4698.
Test [2] concerns Enterobacter cloacae BCRC 10401.
In test [3] the test system is Escherichia coli BCRC 10675.
Test [4] has as its system Klebsiella aerogenes BCRC 10370.
The test system of test [5] is Klebsiella oxytoca BCRC 13985.
Test [6] has as its system Listeria monocytogenes BCRC 14845.
Test [7] has as its system Pseudomonas aeruginosa BCRC 10944.
Test [8] relates to Staphylococcus aureus BCRC 10780.
Test [9] concerns Staphylococcus aureus BCRC 10781.
Test [10] relates to Staphylococcus xylosus BCRC 12930.
In test [11] the test system is Streptococcus equinus BCRC 14729.
For test [12], the system named is Vibrio alginolyticus BCRC 12829.
For test [13], the system named is Vibrio anguillarum serotype O1.
Test [14] has as its system Vibrio parahaemolyticus BCRC 10806.
Test [15] has as its system Yersinia enterocolitica BCRC 13999.
For test [16], the system named is Escherichia coli DH5alpha.
Test [17] concerns Staphylococcus aureus ATCC 6538.
The test system of test [18] is Staphylococcus epidermidis ATCC 12228.
For test [19], the system named is Pseudomonas aeruginosa PAK.
Test [20] relates to Streptococcus gordonii Challis DL1.
The subject of test [21] is Streptococcus mitis ATCC 903.
Test [22] relates to Streptococcus mutans UA159.
Test [23] has as its system Streptococcus sanguinis NY101.

Compound `CC[C@H](C)[C@@H]1NC(=O)[C@H](CO)NC(=O)[C@H](CCCCN)NC(=O)[C@@H](N)CSSC[C@@H](C(=O)NCC(=O)O)NC(=O)[C@H](CCCN=C(N)N)NC(=O)CNC(=O)[C@@H]2CCCN2C1=O` [CKSIPGRCG] registered a minimal inhibitory concentration (MIC) in test [1] of at least 75 µM.
In the case of `CC[C@H](C)[C@H](NC(=O)[C@H](Cc1ccc(O)cc1)NC(=O)[C@H](CC(N)=O)NC(=O)[C@H](Cc1ccccc1)NC(=O)[C@@H](NC(=O)[C@H](CCCCN)NC(=O)[C@H](CCCCN)NC(=O)[C@@H](NC(=O)[C@H](CC(C)C)NC(=O)[C@H](CC(N)=O)NC(=O)[C@H](C)NC(=O)[C@H](Cc1ccccc1)NC(=O)[C@H](CCCCN)NC(=O)[C@H](CCCCN)NC(=O)[C@H](C)NC(=O)[C@H](C)NC(=O)[C@H](CC(N)=O)NC(=O)[C@H](C)NC(=O)CN)[C@@H](C)CC)[C@@H](C)CC)C(=O)N[C@@H](Cc1c[nH]c2ccccc12)C(=O)O` [GANAAKKFANLIKKIFNYIW], the MIC in test [2] is 6.92 µM (≈ 16 µg/mL); in [3], 6.92 µM (≈ 16 µg/mL); in test [4], 6.92 µM (≈ 16 µg/mL); in [5] it was 13.8 µM (≈ 32 µg/mL); in the test on Lactococcus garvieae, at least 55.4 µM; in test [6], 13.8 µM (≈ 32 µg/mL). The minimal inhibitory concentration (MIC) in [7] was 13.8 µM (≈ 32 µg/mL); in test [8], 3.46 µM (≈ 8 µg/mL); in test [9] it was 6.92 µM (≈ 16 µg/mL); in test [10], 6.92 µM (≈ 16 µg/mL); in test [11], at least 55.4 µM; in the test with Streptococcus iniae, at least 55.4 µM. The minimum inhibitory concentration (MIC) in test [12] turned out to be 13.8 µM (≈ 32 µg/mL); against Vibrio alginolyticus it was 6.92 µM (≈ 16 µg/mL); in test [13], 6.92 µM (≈ 16 µg/mL); against Vibrio harveyi it was 3.46 µM (≈ 8 µg/mL); in [14], 13.8 µM (≈ 32 µg/mL); in the test with Vibrio parahaemolyticus, 6.92 µM (≈ 16 µg/mL). For the same compound, the MIC in test [15] is at least 55.4 µM.
For `CC(C)C[C@H](NC(=O)[C@H](CC(C)C)NC(=O)[C@H](CCCCN)NC(=O)[C@H](CCCCN)NC(=O)[C@H](CC(C)C)NC(=O)[C@H](C)NC(=O)[C@H](CCCCN)NC(=O)[C@H](Cc1ccccc1)NC(=O)[C@H](CC(C)C)NC(=O)[C@H](C)NC(=O)[C@H](CCCCN)NC(=O)[C@H](CC(C)C)NC(=O)[C@@H](N)Cc1ccccc1)C(=O)O` [FLKALFKALKKLL], the MIC in test [16] was 7.83 µM (≈ 12 µg/mL); in test [1] it was 1.96 µM (≈ 3 µg/mL); in test [17], 5.87 µM (≈ 9 µg/mL); in [18], 6.52 µM (≈ 10 µg/mL).
Turning to `CC[C@H](C)[C@H](NC(=O)[C@H](Cc1ccccc1)NC(=O)[C@H](Cc1cnc[nH]1)NC(=O)[C@H](CCCCN)NC(=O)[C@@H](NC(=O)[C@H](Cc1ccccc1)NC(=O)[C@@H](NC(=O)[C@H](C)NC(=O)[C@H](CO)NC(=O)[C@H](Cc1ccccc1)NC(=O)[C@H](CCC(N)=O)NC(=O)[C@H](CCCCN)NC(=O)[C@H](CC(C)C)NC(=O)[C@H](CC(C)C)NC(=O)[C@H](CCCCN)NC(=O)[C@H](CC(C)C)NC(=O)[C@H](CC(C)C)NC(=O)[C@H](CCC(N)=O)NC(=O)[C@H](CCCCN)NC(=O)[C@H](CC(C)C)NC(=O)[C@H](CC(C)C)NC(=O)[C@H](CCC(N)=O)NC(=O)[C@@H](N)CC(C)C)[C@@H](C)O)[C@@H](C)CC)C(=O)N[C@@H](Cc1cnc[nH]1)C(=O)N[C@@H](CCCN=C(N)N)C(=O)N[C@@H](Cc1ccccc1)C(N)=O` [LQLLKQLLKLLKQFSATFIKHFIHRF], the MIC in [19] came to 9.96 µM (≈ 32 µg/mL); in the test with Staphylococcus aureus, 9.96 µM (≈ 32 µg/mL); in test [20], 4.98 µM (≈ 16 µg/mL); in test [21], 9.96 µM (≈ 32 µg/mL); in test [22], 2.49 µM (≈ 8 µg/mL); in [23], 4.98 µM (≈ 16 µg/mL).
On to `CC[C@H](C)[C@H](NC(=O)CN)C(=O)N[C@@H](CCCCN)C(=O)N[C@H](C(=O)N[C@@H](C)C(=O)N[C@@H](CCCCN)C(=O)N[C@@H](CCCCN)C(=O)N[C@@H](C)C(=O)N[C@H](C(=O)N[C@H](C(=O)N[C@H](C(=O)N[C@@H](C)C(=O)N[C@@H](CCCCN)C(=O)N[C@@H](CCCCN)C(=O)N[C@H](C(=O)N[C@@H](C)C(=O)N[C@@H](CCCCN)C(=O)N[C@H](C(=O)N[C@@H](Cc1ccc(O)cc1)C(=O)N[C@@H](Cc1c[nH]c2ccccc12)C(=O)O)[C@@H](C)CC)[C@@H](C)CC)[C@@H](C)CC)[C@@H](C)O)[C@@H](C)CC)[C@@H](C)CC` [GIKIAKKAITIAKKIAKIYW], for which the MIC in test [2] is 3.54 µM (≈ 8 µg/mL); in test [3], 7.09 µM (≈ 16 µg/mL); in test [4] it was 7.09 µM (≈ 16 µg/mL); in test [5], 14.2 µM (≈ 32 µg/mL); in the test with Lactococcus garvieae it was at least 56.7 µM; in [6] it was 14.2 µM (≈ 32 µg/mL). In addition, the MIC in [7] is 7.09 µM (≈ 16 µg/mL); in test [8], 14.2 µM (≈ 32 µg/mL); in test [9], 14.2 µM (≈ 32 µg/mL); in test [10], 1.77 µM (≈ 4 µg/mL); in test [11], at least 56.7 µM; with Streptococcus iniae, at least 56.7 µM. The MIC in test [12] is at least 56.7 µM; against Vibrio alginolyticus it was 1.77 µM (≈ 4 µg/mL); in test [13], 14.2 µM (≈ 32 µg/mL); against Vibrio harveyi, 14.2 µM (≈ 32 µg/mL); in test [14] it was at least 56.7 µM; in the test with Vibrio parahaemolyticus it was 7.09 µM (≈ 16 µg/mL). In test [15], this compound gave a minimum inhibitory concentration (MIC) of 14.2 µM (≈ 32 µg/mL).
Take `CC[C@H](C)[C@H](NC(=O)[C@H](Cc1ccccc1)NC(=O)[C@H](Cc1cnc[nH]1)NC(=O)[C@H](CCCCN)NC(=O)[C@@H](NC(=O)[C@@H](N)Cc1ccccc1)[C@@H](C)CC)C(=O)N[C@@H](Cc1cnc[nH]1)C(=O)N[C@@H](CCCN=C(N)N)C(=O)N[C@@H](Cc1ccccc1)C(=O)N[C@@H](CO)C(=O)N[C@@H](C)C(=O)N[C@H](C(=O)N[C@@H](CC(C)C)C(=O)N[C@@H](CCC(N)=O)C(=O)N[C@@H](CC(C)C)C(=O)N[C@@H](CC(C)C)C(=O)N[C@@H](CCCCN)C(=O)N[C@@H](CCC(N)=O)C(=O)N[C@@H](CC(C)C)C(=O)N[C@@H](CC(C)C)C(=O)N[C@@H](CCCCN)C(=O)N[C@@H](CC(C)C)C(=O)N[C@@H](CC(C)C)C(=O)N[C@@H](CCCCN)C(=O)N[C@@H](CCC(N)=O)C(=O)N[C@@H](Cc1ccccc1)C(N)=O)[C@@H](C)O` [FIKHFIHRFSATLQLLKQLLKLLKQF]: the minimum inhibitory concentration (MIC) in [19] is 9.96 µM (≈ 32 µg/mL); in the test on Staphylococcus aureus it was 19.5 µM (≈ 62.5 µg/mL); in test [20], 2.49 µM (≈ 8 µg/mL); in test [21], 9.96 µM (≈ 32 µg/mL); in test [22] it was 4.98 µM (≈ 16 µg/mL); in test [23], 4.98 µM (≈ 16 µg/mL).
